The source of these data is patent US20230117034A1, “PYRAZOLOTRIAZINES” (Bayer Aktiengesellschaft, priority 2019, published 2023).

One test concerns the target T1, CDK2/CycE (Homo sapiens, UniProt P24941).
T1 construct: purchased ProQinase GmbH (Freiburg, Germany); host or cells: insect cells (Sf9)
Description: CDK2/CycE kinase assay (TR-FRET, 2 mM ATP). In kind it is biochemical. To be noted: 2 mM ATP (high ATP); median; read-out: CDK2/CyclinE, 2 mM ATP (high ATP), IC50 (median). The gist of the method:
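GST-tagged human CDK2 and CycE from Sf9 cells, about 10 ng/ml, pre-incubated 15 min at 22 °C with compound in Tris/HCl pH 8.0 buffer. Reaction with 2 mM ATP and 0.75 µM biotinylated peptide for 25 min at 22 °C. Phospho-RB antibody TR-FRET (665/620 nm ratio) read after 1 h; data normalised to no-inhibitor and no-enzyme controls.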

Test [1] deals with MDA-MB-231, human breast cancer cells. Description: Proliferation assay MDA-MB-231 (crystal violet, 4 days). In kind it is cell-based. The following applies: MDA-MB-231 cells, median, read-out: Prolif-MDA MB-231, IC50-[mol/l] (median). The essentials:
(§1)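 Plated 4,000 cells/well, 10% FCS; 24 h later treated 0.01-10 µmol/L cpd (DMSO 0.1%), 4 d. Fix glutaraldehyde, stain 0.1% crystal violet pH 3.0, elute acetic acid, A595. Normalized to t0 plate/untreated; 4-param IC50.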

Test [2] deals with CAL-120, human breast adenocarcinoma cells. In words: Proliferation assay CAL-120 (crystal violet, 4 days). In kind it is cell-based. To be noted: CAL-120 cells, median, read-out: Prolif-CAL-120, IC50-[mol/l] (median). The essentials: as §1
For test [3], the system named is BRCA1 mRNA expression in MDA-MB-231 cells. Description: qRT-PCR assay: BRCA1 mRNA expression in MDA-MB-231. The following applies: median, read-out: RTqPCR-MDA-MB-231, IC50, BRCA1 (median). In kind it is cell-based, human. The gist of the method: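 Read-out is RT-qPCR with expression normalised to the GAPDH housekeeping gene. Before RNA isolation, plated cells (200,000 per well, 24 h attachment) received test substances continuously over 24 h, and 600 ng of RNA served as cDNA template.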

Setting [4] is: Homo sapiens, MDA-MB-231, Inhibition of BRCA1 mRNA expression in MDA-MB-231 cells.

Read-outs that look alike come from different tables or passages of the source.

With `CN1CCC(Oc2nc(NCc3nc4ccccc4[nH]3)n3ncc(Br)c3n2)CC1` [Example 389, N-[(1H-benzimidazol-2-yl)methyl]-8-bromo-2-[(1-methylpiperidin-4-yl)oxy]pyrazolo[1,5-a][1,3,5]triazin-4-amine], the IC50 at CDK2/CycE is over 20 µM; in test [1] (Homo sapiens, MDA-MB-231, 96 h), 332 nM; in test [2] (Homo sapiens, CAL-120, 96 h), 52.7 nM.

For the compound `FC(F)(F)c1ccc2[nH]c(CNc3nc(N4CC5CCC(C4)N5)nc4c(C5CC5)cnn34)nc2c1` [Example 327, 8-cyclopropyl-2-(3,8-diazabicyclo[3.2.1]octan-3-yl)-N-{[5-(trifluoromethyl)-1H-benzimidazol-2-yl]methyl}pyrazolo[1,5-a][1,3,5]triazin-4-amine], the IC50 was over 18.7 µM at CDK2/CycE; 8.3 nM in test [3] (setting [4]); 2.27 nM in test [1] (Homo sapiens, MDA-MB-231, 96 h); 2.28 nM in test [2] (Homo sapiens, CAL-120, 96 h).

Take `CN1C2CCC1CN(c1nc(NCc3nc4c(F)c(F)ccc4[nH]3)n3ncc(C(F)(F)F)c3n1)C2` [Example 356, N-[(4,5-difluoro-1H-benzimidazol-2-yl)methyl]-2-(8-methyl-3,8-diazabicyclo[3.2.1]octan-3-yl)-8-(trifluoromethyl)pyrazolo[1,5-a][1,3,5]triazin-4-amine]: the IC50 at CDK2/CycE is over 20 µM; in test [3] (setting [4]), 5.05 nM; in test [1] (Homo sapiens, MDA-MB-231, 96 h), 5.25 nM; in test [2] (Homo sapiens, CAL-120, 96 h), 2.1 nM.

For the compound `CN(CC(C)(C)O)c1nc(NCc2nc3c(F)c(F)ccc3[nH]2)n2ncc(Cl)c2n1` [Example 359, 1-[(8-chloro-4-{[(4,5-difluoro-1H-benzimidazol-2-yl)methyl]amino}pyrazolo[1,5-a][1,3,5]triazin-2-yl)(methyl)amino]-2-methylpropan-2-ol], the IC50 on CDK2/CycE came out at 12.4 µM; in test [3] (setting [4]) it was 3.28 nM; in test [1] (Homo sapiens, MDA-MB-231, 96 h) it was 15.2 nM; in test [2] (Homo sapiens, CAL-120, 96 h) it was 5.69 nM.

For `CN1CCCN(c2nc(NCc3nc4ccccc4[nH]3)n3ncc(Br)c3n2)CC1` [Example 390, N-[(1H-benzimidazol-2-yl)methyl]-8-bromo-2-(4-methyl-1,4-diazepan-1-yl)pyrazolo[1,5-a][1,3,5]triazin-4-amine], the IC50 was over 20 µM at CDK2/CycE; 176 nM in test [1] (Homo sapiens, MDA-MB-231, 96 h); 29.8 nM in test [2] (Homo sapiens, CAL-120, 96 h).

With `Brc1cnn2c(NCc3nc4ccccc4[nH]3)nc(N3C[C@H]4CC[C@@H]3CO4)nc12` (single isomer, unassigned; enantiomer 2) [Example 391, N-[(1H-benzimidazol-2-yl)methyl]-8-bromo-2-{[1R or S-(1R*,4R*)]-2-oxa-5-azabicyclo[2.2.2]octan-5-yl}pyrazolo[1,5-a][1,3,5]triazin-4-amine (Enantiomer 2)], the IC50 on CDK2/CycE was found to be 4.91 µM; in test [3] (Inhibition of BRCA1 mRNA expression in MDA-MB-231 cells), 3.77 nM; in test [1] it was 26.1 nM; in test [2], 8.31 nM.

With `FC(F)(F)Oc1cccc2[nH]c(CNc3nc(N4C[C@H]5CC[C@@H](C4)N5)nc4c(Br)cnn34)nc12` [Example 381, 8-bromo-2-[(1R,5S)-3,8-diazabicyclo[3.2.1]octan-3-yl]-N-{[4-(trifluoromethoxy)-1H-benzimidazol-2-yl]methyl}pyrazolo[1,5-a][1,3,5]triazin-4-amine], the IC50 at CDK2/CycE was over 20 µM; in test [1] (Homo sapiens, MDA-MB-231, 96 h) it was 43.5 nM; in test [2] (Homo sapiens, CAL-120, 96 h), 30.8 nM.

As for `CN(c1nc(NCc2nc3ccccc3[nH]2)n2ncc(Br)c2n1)[C@H]1C[C@@H](O)C1` [Example 364, cis-3-[(4-{[(1H-benzimidazol-2-yl)methyl]amino}-8-bromopyrazolo[1,5-a][1,3,5]triazin-2-yl)(methyl)amino]cyclobutan-1-ol], the IC50 worked out at 2.07 µM at CDK2/CycE; 9.75 nM in test [3] (setting [4]); 41.3 nM in test [1] (Homo sapiens, MDA-MB-231, 96 h).

Regarding `CN1CCN(c2nc(NCc3nc4cc(OC(F)(F)F)ccc4[nH]3)n3ncc(Br)c3n2)CC1` [Example 377, 8-bromo-2-(4-methylpiperazin-1-yl)-N-{[5-(trifluoromethoxy)-1H-benzimidazol-2-yl]methyl}pyrazolo[1,5-a][1,3,5]triazin-4-amine], the IC50 on CDK2/CycE was found to be 17.1 µM; in test [1] (Homo sapiens, MDA-MB-231, 96 h), 116 nM; in test [2] (Homo sapiens, CAL-120, 96 h), 79.3 nM.

Consider `CN1CCN(c2nc(NCc3nc4c(OC(F)(F)F)cccc4[nH]3)n3ncc(Br)c3n2)CC1` [Example 376, 8-bromo-2-(4-methylpiperazin-1-yl)-N-{[4-(trifluoromethoxy)-1H-benzimidazol-2-yl]methyl}pyrazolo[1,5-a][1,3,5]triazin-4-amine], for which the IC50 was over 20 µM on CDK2/CycE; 102 nM in test [1] (Homo sapiens, MDA-MB-231, 96 h); 36.8 nM in test [2] (Homo sapiens, CAL-120, 96 h).

As to `CN(c1nc(NCc2nc3ccccc3[nH]2)n2ncc(Br)c2n1)[C@H]1C[C@H](O)C1` [Example 365, trans-3-[(4-{[(1H-benzimidazol-2-yl)methyl]amino}-8-bromopyrazolo[1,5-a][1,3,5]triazin-2-yl)(methyl)amino]cyclobutan-1-ol], the IC50 stood at 1.74 µM on CDK2/CycE; 118 nM in test [1] (Homo sapiens, MDA-MB-231, 96 h); 70.2 nM in test [2] (Homo sapiens, CAL-120, 96 h).

For `FC(F)(F)c1ccc2[nH]c(CNc3nc(N4CC5CCC(C4)N5)nc4c(Br)cnn34)nc2c1` [Example 354, 8-bromo-2-(3,8-diazabicyclo[3.2.1]octan-3-yl)-N-{[5-(trifluoromethyl)-1H-benzimidazol-2-yl]methyl}pyrazolo[1,5-a][1,3,5]triazin-4-amine], the IC50 in test [3] (setting [4]) is under 100 nM; in test [1] (Homo sapiens, MDA-MB-231, 96 h) it was 3.05 nM; in test [2] (Homo sapiens, CAL-120, 96 h), 2.8 nM.

With `CN(CC(C)(C)O)c1nc(NCc2nc3cc(OC(F)(F)F)ccc3[nH]2)n2ncc(Br)c2n1` [Example 378, 1-{[8-bromo-4-({[5-(trifluoromethoxy)-1H-benzimidazol-2-yl]methyl}amino)pyrazolo[1,5-a][1,3,5]triazin-2-yl](methyl)amino}-2-methylpropan-2-ol], the IC50 on CDK2/CycE turned out to be 8.11 µM; in test [1] (Homo sapiens, MDA-MB-231, 96 h) it was 96.4 nM; in test [2] (Homo sapiens, CAL-120, 96 h), 41.5 nM.

`CC[C@H](CO)Nc1nc(NCc2nc3ccccc3[nH]2)n2ncc(Br)c2n1` [Example 368, (2R)-2-[(4-{[(1H-benzimidazol-2-yl)methyl]amino}-8-bromopyrazolo[1,5-a][1,3,5]triazin-2-yl)amino]butan-1-ol]: the IC50 came to 0.885 µM at CDK2/CycE; 173 nM in test [1] (Homo sapiens, MDA-MB-231, 96 h); 94.9 nM in test [2] (Homo sapiens, CAL-120, 96 h).

Consider `CC(C)c1cnn2c(NCc3ncc(-c4ccccc4)[nH]3)nc(N3CCOCC3)nc12` [Example 30, 2-(morpholin-4-yl)-N-[(5-phenyl-1H-imidazol-2-yl)methyl]-8-(propan-2-yl)pyrazolo[1,5-a][1,3,5]triazin-4-amine], for which the IC50 on CDK2/CycE was determined as 7.28 µM; in test [3] (setting [4]), 28.5 nM.

Turning to `CCNc1nc(NCc2nc(-c3ccc(C)cc3)c[nH]2)n2ncc(Br)c2n1` [Example 26, 8-bromo-N^2-ethyl-N^4-{[4-(4-methylphenyl)-1H-imidazol-2-yl]methyl}pyrazolo[1,5-a][1,3,5]triazine-2,4-diamine], the IC50 was 2.07 µM at CDK2/CycE and 74.4 nM in test [3] (setting [4]).

Consider `Cc1[nH]c(CNc2nc(N3CCOCC3)nc3c(Br)cnn23)nc1-c1ccccc1` [Example 27, 8-bromo-N-[(5-methyl-4-phenyl-1H-imidazol-2-yl)methyl]-2-(morpholin-4-yl)pyrazolo[1,5-a][1,3,5]triazin-4-amine], for which the results for the IC50 (on CDK2/CycE; in test [3] (setting [4])) were 17.1 µM and 165 nM, respectively.

`CC[C@@H](CO)Nc1nc(NCc2nc3ccccc3[nH]2)n2ncc(Br)c2n1` [Example 367, (2S)-2-[(4-{[(1H-benzimidazol-2-yl)methyl]amino}-8-bromopyrazolo[1,5-a][1,3,5]triazin-2-yl)amino]butan-1-ol]: the IC50 at CDK2/CycE is 0.573 µM; in test [1] (Homo sapiens, MDA-MB-231, 96 h), 84.1 nM; in test [2] (Homo sapiens, CAL-120, 96 h), 31.4 nM.

In the case of `CC[C@H](COC)Nc1nc(NCc2nc3ccccc3[nH]2)n2ncc(Br)c2n1` [Example 369, N4-[(1H-benzimidazol-2-yl)methyl]-8-bromo-N2-[(2R)-1-methoxybutan-2-yl]pyrazolo[1,5-a][1,3,5]triazine-2,4-diamine], the IC50 amounted to 10.5 µM at CDK2/CycE; 297 nM in test [1] (Homo sapiens, MDA-MB-231, 96 h); 140 nM in test [2] (Homo sapiens, CAL-120, 96 h).

As to `Cc1ccnc2[nH]c(CNc3nc(N4CCN(C)CC4)nc4c(C(C)C)cnn34)nc12` [Example 32, N-[(7-methyl-3H-imidazo[4,5-b]pyridin-2-yl)methyl]-2-(4-methylpiperazin-1-yl)-8-(propan-2-yl)pyrazolo[1,5-a][1,3,5]triazin-4-amine], the IC50 on CDK2/CycE turned out to be 15.6 µM.

With `FC(F)(F)Oc1cccc2[nH]c(CNc3nc(N4CCOCC4)nc4c(Br)cnn34)nc12` [Example 375, 8-bromo-2-(morpholin-4-yl)-N-{[4-(trifluoromethoxy)-1H-benzimidazol-2-yl]methyl}pyrazolo[1,5-a][1,3,5]triazin-4-amine], the IC50 is 11.9 µM at CDK2/CycE; 142 nM in test [1] (Homo sapiens, MDA-MB-231, 96 h); 68.6 nM in test [2] (Homo sapiens, CAL-120, 96 h).
